Converted amounts (≈) assume the structure as drawn. The source made the active and inactive calls. The calls are words filed in the database; no cut-off is given here.
Columns and labels:
[1] = Toxicity in monkey assessed as NOAEL after 8 weeks; set-up: species or system Macaca mulatta; settings: rhesus monkey, in vivo, 1344 h
[2] = molecular target: T1, Toll-like receptor 7 (Homo sapiens, UniProt Q9NYK1); assay: Agonist activity at TLR7 in human U2OS cells; assay type: cell-based
T1 sequence (Q9NYK1 whole entry): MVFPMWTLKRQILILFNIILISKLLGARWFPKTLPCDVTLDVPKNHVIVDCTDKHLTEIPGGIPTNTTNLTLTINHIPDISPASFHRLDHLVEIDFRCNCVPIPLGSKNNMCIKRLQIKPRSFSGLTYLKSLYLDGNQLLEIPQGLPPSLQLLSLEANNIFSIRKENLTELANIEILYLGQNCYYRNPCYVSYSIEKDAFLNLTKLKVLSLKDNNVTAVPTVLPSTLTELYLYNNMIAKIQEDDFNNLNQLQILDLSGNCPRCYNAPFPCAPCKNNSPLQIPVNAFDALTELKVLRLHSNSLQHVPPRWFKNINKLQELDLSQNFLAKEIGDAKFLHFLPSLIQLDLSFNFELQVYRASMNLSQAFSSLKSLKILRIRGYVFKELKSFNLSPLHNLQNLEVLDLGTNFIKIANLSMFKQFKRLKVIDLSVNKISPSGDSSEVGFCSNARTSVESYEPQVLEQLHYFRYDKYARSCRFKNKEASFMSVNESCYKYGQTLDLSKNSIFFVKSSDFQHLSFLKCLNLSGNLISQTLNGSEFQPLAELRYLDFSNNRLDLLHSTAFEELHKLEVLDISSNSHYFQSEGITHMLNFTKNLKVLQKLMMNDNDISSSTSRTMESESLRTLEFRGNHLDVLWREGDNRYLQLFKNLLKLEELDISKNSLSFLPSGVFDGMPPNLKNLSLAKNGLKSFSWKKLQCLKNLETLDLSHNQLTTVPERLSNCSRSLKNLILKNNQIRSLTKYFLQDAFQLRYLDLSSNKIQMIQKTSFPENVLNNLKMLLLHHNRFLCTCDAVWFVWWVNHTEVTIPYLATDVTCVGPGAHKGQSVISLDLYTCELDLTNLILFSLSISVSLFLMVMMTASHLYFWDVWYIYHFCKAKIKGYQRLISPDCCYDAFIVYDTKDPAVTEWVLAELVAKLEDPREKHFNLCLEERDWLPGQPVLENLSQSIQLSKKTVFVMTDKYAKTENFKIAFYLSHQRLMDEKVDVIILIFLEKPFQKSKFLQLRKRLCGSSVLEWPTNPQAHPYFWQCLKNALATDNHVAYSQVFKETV

[3] = molecular target: T1, Toll-like receptor 7; assay: Agonist activity at TLR7 in human whole blood assessed as induction of IL-1beta production after 20 hrs by electrochemiluminescence assay; assay type: tissue-based
[4] = molecular target: T2, Toll-like receptor 7 (Macaca fascicularis) (UniProt B3Y652); assay: In vivo target occupancy at TLR7 in cynomolgus monkey assessed as fold increase in OAS3 mRNA expression in nasal scrape at 30 ng/kg administered intranasally incubated for 24 hrs by TaqMan analysis (reference value: 0.9); assay type: functional
T2 sequence (whole entry): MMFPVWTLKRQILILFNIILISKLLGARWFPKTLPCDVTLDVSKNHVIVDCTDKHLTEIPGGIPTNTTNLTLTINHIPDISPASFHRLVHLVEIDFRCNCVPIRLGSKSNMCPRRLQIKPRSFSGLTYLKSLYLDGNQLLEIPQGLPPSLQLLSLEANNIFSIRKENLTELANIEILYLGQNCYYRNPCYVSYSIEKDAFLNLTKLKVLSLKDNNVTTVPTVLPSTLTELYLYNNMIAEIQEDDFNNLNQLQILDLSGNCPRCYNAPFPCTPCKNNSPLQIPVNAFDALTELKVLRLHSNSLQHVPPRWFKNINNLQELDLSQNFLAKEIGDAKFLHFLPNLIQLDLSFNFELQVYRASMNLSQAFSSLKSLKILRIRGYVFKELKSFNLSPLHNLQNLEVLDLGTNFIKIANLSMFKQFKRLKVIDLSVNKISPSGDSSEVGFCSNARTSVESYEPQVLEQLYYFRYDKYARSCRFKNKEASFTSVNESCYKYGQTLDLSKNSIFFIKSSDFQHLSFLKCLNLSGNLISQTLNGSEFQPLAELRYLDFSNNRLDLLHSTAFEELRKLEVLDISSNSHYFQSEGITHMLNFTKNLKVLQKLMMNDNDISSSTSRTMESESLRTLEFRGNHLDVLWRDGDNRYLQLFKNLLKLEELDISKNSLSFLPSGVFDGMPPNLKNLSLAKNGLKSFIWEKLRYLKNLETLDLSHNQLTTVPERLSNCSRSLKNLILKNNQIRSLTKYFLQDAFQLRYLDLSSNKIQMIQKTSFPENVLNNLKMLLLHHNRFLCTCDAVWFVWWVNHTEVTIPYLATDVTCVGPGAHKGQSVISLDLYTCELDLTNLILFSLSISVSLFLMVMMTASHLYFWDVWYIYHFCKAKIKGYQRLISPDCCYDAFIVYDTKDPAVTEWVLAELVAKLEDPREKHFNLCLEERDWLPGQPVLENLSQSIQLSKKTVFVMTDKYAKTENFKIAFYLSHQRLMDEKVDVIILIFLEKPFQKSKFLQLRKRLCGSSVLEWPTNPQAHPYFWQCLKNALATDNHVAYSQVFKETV

[5] = Solubility of the compound at pH-7; assay type: physicochemical
[6] = system: Cynomolgus monkey; assay: Induction of plasma cytokines in cynomolgus monkey; assay type: functional, organism-based; settings: Macaca fascicularis
[7] = Selectivity ratio of pEC50 for agonist activity at TLR7 in human whole blood to pEC50 for agonist activity at TLR7 in BALB/c mouse splenocytes; assay type: cell-based
[8] = molecular target: T1, Toll-like receptor 7; assay: Agonist activity at TLR7 (unknown origin) expressed in human U2OS cells assessed as induction of NF-kappaB driven TNFalpha production by luciferase reporter assay; assay type: cell-based
[9] = system: PBMC; assay: Immunomodulatory activity in human PBMC assessed as reduction in timothy grass induced IL-5 level after 6 days; assay type: functional, cell-based; settings: dose 0.01-10000 nM, time 6.0 day
[10] = Toxicity in mouse assessed as dermal irritancy at 1000 ug/ml administered intranasally after 4 hrs; settings: in vivo, inhaled_or_intranasal, dose 1000 µg/ml
[11] = molecular target: T2, Toll-like receptor 7 (Macaca fascicularis); assay: In vivo target occupancy at TLR7 in cynomolgus monkey assessed as fold increase in OAS1 mRNA expression in nasal scrape at 30 ng/kg administered intranasally incubated for 24 hrs by TaqMan analysis (reference value: 1.2); assay type: functional
[12] = molecular target: T2, Toll-like receptor 7 (Macaca fascicularis); assay: In vivo target occupancy at TLR7 in cynomolgus monkey assessed as fold increase in CXCL10 mRNA expression in nasal scrape at 3 ng/kg administered intranasally incubated for 24 hrs by TaqMan analysis (reference value: 1.6); assay type: functional
[13] = Ocular toxicity in monkey assessed as aqueous cells and aqueous flare at 1000 ug/ml, post single dose administration after 6 hrs; set-up: species or system Macaca mulatta; settings: rhesus monkey, in vivo, dose 1000 µg/ml
[14] = Tmax in cynomolgus monkey after intranasal administration; assay type: ADME, Macaca fascicularis; settings: in vivo, inhaled or intranasal
[15] = molecular target: T2, Toll-like receptor 7 (Macaca fascicularis); assay: In vivo target occupancy at TLR7 in cynomolgus monkey assessed as fold increase in OAS3 mRNA expression in nasal scrape at 3 ng/kg administered intranasally incubated for 24 hrs by TaqMan analysis (reference value: 0.9); assay type: functional

EC50 [2]: 2000 nM
EC50 [3]: 5010 nM
fold change (FC) [4]: 101
solubility [5]: 11 mg/mL (≈ 28.2 mM)
EC50 [8]: 1260 nM
fold change (FC) [11]: 53.7
fold change (FC) [12]: 230
Tmax [14]: ≤ 5 min
fold change (FC) [15]: 86.3
SMILES: CCC[C@H](C)Oc1nc(N)c2[nH]c(=O)n(CCCCCN3CCCCC3)c2n1 [GSK-2245035]
NOAEL [1]: 0.0359 µg/kg
Activity [6]: inactive
Selectivity ratio [7]: 10
Activity [9]: Dose-Dependent Effect
Activity [10]: Non-Toxic
Activity [13]: Toxic

— ChEMBL document CHEMBL5252515, “Discovery of 6-Amino-2-{[(1S)-1-methylbutyl]oxy}-9-[5-(1-piperidinyl)pentyl]-7,9-dihydro-8H-purin-8-one (GSK2245035), a Highly Potent and Selective Intranasal Toll-Like Receptor 7 Agonist for the Treatment of Asthma” (J Med Chem, 2016)
